# Laboratory results: patent publication US5674894A, “Amidine derivatives useful as platelet aggregation inhibitors and vasodilators” (G.D. Searle & Co., priority 1995, dated 1997)
# pIC50: −log10 of the molar value.
# Columns and labels:
# [1] = system: ADP-Induced Platelet Aggregation in Human PRP; experiment: In-Vitro Human Platelet Aggregation in PRP (ADP-induced); format: cell-based; conditions: 1 minute preincubation at 37° C., tested in duplicate, read-out: IC50, inhibition of ADP-induced platelet aggregation in human PRP
# Description: (§1) The compounds of the above invention were tested in the in vitro human platelet aggregation assay in platelet rich plasma (PRP) and in the competitive solid phase binding assay against purified human fibrinogen and vitronectin receptors.
# In-Vitro Human Platelet Aggregation in PRP:
# Healthy male or female donors who have not taken any antiplatelet drugs for at least two weeks were fasted for 8 hours prior to drawing blood; then 30 mL whole blood was collected using a butterfly needle and 30 cc plastic syringe with 3 mL of 0.129M buffered sodium citrate (3.8%). The syringe was rotated carefully as blood was drawn to mix the citrate. Platelet-richplasma (PRP) was prepared by centrifugation at 250× g for 12 minutes at room temperature, allowing the centrifuge to coast to a stop without braking. The PRP was removed from the blood with a plastic pipette and placed in a plastic capped, 50 mL Corning conical sterile centrifuge tube which was held at room temperature. Platelet-poor plasma (PPP) was prepared by centrifuging the remaining blood at 2000× g for 15 minutes at room temperature allowing the centrifuge to coast to a stop without braking. The PRP was adjusted with PPP to a count of 2-3×10^8 platelets per mL. 450 μL of the PRP preparation and 50 μL of the compound to be tested or saline were preincubated for 1 minute at 37° C. in a Payton aggregometer (Payton Scientific, Inc., Buffalo, N.Y.). 50 μL of adenosine 5'-diphosphate (ADP) ([…]) was added to the cuvettes and the aggregation was monitored for 1 minute. All compounds are tested in duplicate. Results are calculated as follows: Percent of control=[(maximal OD minus initial OD of compound) divided by (maximal OD minus initial OD of control saline)]×100. The % inhibition=100-(percent of control). The compounds tested and their activity results at median inhibitory concentration (IC50) were as recorded in Table 1.
# [2] = molecular target: purified human fibrinogen receptor (IIb^β 3) (Homo sapiens, UniProt P05106+P08514); experiment: Solid phase receptor assay, competitive binding to purified human fibrinogen receptor; conditions: biotinylated ligand 1 nM final, two hours, room temperature
# Description: as §1
# (§2) Solid Phase Receptor Assays
# (§3) These assays were essentially the same as previously reported. The purified human vitronectin receptor(αv β3) or purified human fibrinogen receptor(IIb^β 3) were diluted from stock solutions to 1.0 μg/mL in Tris-buffered saline containing 1.0 mM Ca^++, Mg^++, and Mn^++, pH 7.4 (TBS^+++). The diluted receptor was immediately transferred to Linbro microtiter plates at 100 μL/well (100 ng receptor/well). The plates were sealed and incubated overnight at 4° C. to allow the receptor to bind to the wells. All remaining steps were at room temperature. The assay plates are emptied and 200 μL of 1% radioimmunoassay grade bovine serum albumin in TBS^+++ (TBS^+++ /BSA) were added to block exposed plastic surfaces. Following a 2 hour incubation, the assay plates were washed with TBS^+++ using a 96 well plate washer. Logarithmic serial dilution of the test compound and controls were made starting at a stock concentration of 2 mM and using 2 nM biotinylated vitronectin in TBS^+++ /BSA as the diluent. This premixing of labeled ligand with test (or control) ligand, and subsequent transfer of 50 μL aliquots to the assay plate was carried out with a CETUS Propette robot; the final concentration of the labeled ligand was 1 nM and the highest concentration of test compound was 1.0×10^-4M. The competition occurred for two hours after which all wells were washed with a plate washer as before. Affinity purified horseradish peroxidase labeled goat anti-biotin antibody was diluted 1:3000 in TBS^+++ /BSA and 125 μL were added to each well. After 30 minutes, the plates were washed and incubated with o-phenylendiamine/H2 O2 substrate in 100 mM/L Citrate buffer, pH 5.0. The plate was read with a microtiter plate reader at a wavelength of 450 nm and when the maximum-binding control wells reached an absorbance of about 1.0, the final A450 were recorded for analysis. The data were analyzed using a macro written for use with the EXCEL™ spreadsheet program. The mean, standard deviation, and % coefficient variation were determined for duplicate concentrations. The mean A450 values were normalized to the mean of four maximum-binding controls (no competitor added). The normalized values were subjected to a four parameter curve fit algorithm, plotted on a semi-log scale, and the computed IC50 and corresponding correlation coefficient was reported. GRGDSP, a peptide fragment of fibrinogen, was included on each plate as a positive control.
# [3] = molecular target: purified human vitronectin receptor (αv β3) (Homo sapiens, UniProt P05106+P06756); experiment: Solid phase receptor assay, competitive binding to purified human vitronectin receptor; conditions: biotinylated vitronectin 1 nM final, two hours, highest concentration 1.0×10^-4M, read-out: IC50 Vitronetin receptor
# Description: as §1, §2, §3
SMILES,pIC50 [1],pIC50 [2],pIC50 [3]
N=C(N)c1ccc(CCCCC(=O)NC(CC(=O)O)C(=O)O[C@H]2CO[C@H]3[C@@H]2OC[C@H]3O[N+](=O)[O-])cc1 (stereo partly drawn) [Example 3],5.70,8.51,< 4.00
N=C(N)c1ccc(CCCCC(=O)NC(CC(=O)O)C(=O)OC2COC3C(O)COC23)cc1 (stereo not drawn) [Example 5],5.70,8.89,< 4.00
N=C(N)c1ccc(NC(=O)CCC(=O)NC(CC(=O)O)C(=O)O[C@H]2CO[C@H]3[C@@H]2OC[C@H]3O[N+](=O)[O-])cc1 (stereo partly drawn) [Example 6],6.40,9.60,< 4.00
N=C(N)c1ccc(NC(=O)CCC(=O)NC(CC(=O)O)C(=O)O[C@H]2CO[C@H]3[C@@H]2OC[C@H]3O)cc1 (stereo partly drawn) [Example 8],6.52,9.15,< 4.00
